Laboratory results: US9040528B2, “Chemical compounds 542” (AstraZeneca AB, priority 2008, dated 2015)
Read-outs that look alike come from different tables or passages of the source.

Biological target: Escherichia coli DNA gyrase A/B tetramer (Escherichia coli (strain K12), UniProt P0AES4+P0AES6)
Test: DNA gyrase supercoiling activity fluorescence polarisation assay
Assay type: biochemical
How it was run: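 Supercoiling reactions quenched with 40 nM 5′-BODIPY-FL triplex-forming oligonucleotide probe in pH 3.5 NaCl/sodium acetate buffer; after 60 min, fluorescence anisotropy read (ex 485/em 535 nm). IC50 by nonlinear regression, normalised to 0.8% DMSO (100% activity) and 5 μM ciprofloxacin (0% activity).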

[1] = 5 nM enzyme, relaxed plasmid, 0.3 mM ATP, ambient temperature, read-out: E. coli DNA gyrase supercoiling IC50

Row | Structure (SMILES) | IC50 [1] | IC50
1 | C[C@@H]1CN2c3c(cc4c(NCC5CC5)noc4c3F)CC3(C(=O)NC(=O)NC3=O)[C@H]2[C@H](C)O1 (relative stereo) [Example 17, (2R,4S,4aS)-rel-8-[(cyclopropylmethyl)amino]-11-fluoro-2,4-dimethyl-1,2,4,4a-tetrahydro-2′H,6H-spiro[1,4-oxazino[4,3-a][1,2]oxazolo[4,5-g]quinoline-5,5′-pyrimidine]-2′,4′,6′(1′H,3′H)-trione] | 1400 nM | 
2 | C[C@@H]1CN2c3c(nc4c(C(=O)NCC(C)(C)C)noc4c3Cl)CC3(C(=O)NC(=O)NC3=O)[C@H]2[C@H](C)O1 (relative stereo) [Example 129, (2R,4S,4aS)-rel-11-Chloro-2,4-dimethyl-N-neopentyl-2′,4′,6′-trioxo-2,2′,3′,4,4a,4′,6,6′-octahydro-1H,1′H-spiro[isoxazolo[4,5-g][1,4]oxazino[4,3-a][1,5]naphthyridine-5,5′-pyrimidine]-8-carboxamide] | 31000 nM | 
3 | C[C@@H]1CN2c3c(cc4c(-n5cncn5)noc4c3F)CC3(C(=O)NC(=O)NC3=O)[C@H]2[C@H](C)O1 (racemic) [Example 53, (2R,4S,4 aS)-rel-11-fluoro-2,4-dimethyl-8-(1H-1,2,4-triazol-1-yl)-1,2,4,4a-tetrahydro-2′H,6H-spiro[1,4-oxazino[4,3-a][1,2]oxazolo[4,5-g]quinoline-5,5′-pyrimidine]-2′,4′,6′(1′H,3′H)-trione] |  | 2800 nM
4 | C[C@@H]1CN2c3c(cc4c(C(=O)N5CCCCO5)noc4c3F)CC3(C(=O)NC(=O)NC3=O)[C@H]2[C@H](C)O1 (relative stereo) [Example 153, (2R,4S,4aS)-rel-11-fluoro-2,4-dimethyl-8-(1,2-oxazinan-2-ylcarbonyl)-1,2,4,4a-tetrahydro-2′H,6H-spiro[isoxazolo[4,5-g][1,4]oxazino[4,3-a]quinoline-5,5′-pyrimidine]-2′,4′,6′(1′H,3′H)-trione] | 3700 nM | 
5 | CSc1cnc(-c2noc3c(F)c4c(cc23)CC2(C(=O)NC(=O)NC2=O)[C@H]2[C@H](C)O[C@H](C)CN42)cn1 (relative stereo) [Example 80, (2R,4S,4aS)-rel-11-fluoro-2,4-dimethyl-8-(5-(methylthio)pyrazin-2-yl)-2,4,4a,6-tetrahydro-1H,1′H-spiro[isoxazolo[4,5-g][1,4]oxazino[4,3-a]quinoline-5,5′-pyrimidine]-2′,4′,6′(3′H)-trione] | 1700 nM | 
6 | C[C@@H]1CN2c3c(nc4c(-c5cnccn5)noc4c3Cl)CC3(C(=O)NC(=O)NC3=O)[C@H]2[C@H](C)O1 (relative stereo) [Example 110, (2R,4S,4aS)-rel-11-chloro-2,4-dimethyl-8-(pyrazin-2-yl)-2,4,4a,6-tetrahydro-1H,1′H-spiro[isoxazolo[4,5-g][1,4]oxazino[4,3-a][1,5]naphthyridine-5,5′-pyrimidine]-2′,4′,6′(3′H)-trione] | 3000 nM | 
7 | Cc1cnc(-c2noc3c(Cl)c4c(nc23)CC2(C(=O)NC(=O)NC2=O)[C@H]2[C@H](C)O[C@H](C)CN42)s1 (relative stereo) [Example 122, (2R,4S,4aS)-rel-11-Chloro-2,4-dimethyl-8-(5-methylthiazol-2-yl)-2,4,4a,6-tetrahydro-1H,1′H-spiro[isoxazolo[4,5-g][1,4]oxazino[4,3-a][1,5]naphthyridine-5,5′-pyrimidine]-2′,4′,6′(3′H)-trione] | 500 nM | 
8 | C[C@@H]1CN2c3c(cc4c(-c5ncnn5C)noc4c3F)CC3(C(=O)NC(=O)NC3=O)[C@H]2[C@H](C)O1 [Example 178, (2R,4S,4aS)-11-fluoro-2,4-dimethyl-8-(1-methyl-1H-1,2,4-triazol-5-yl)-2,4,4a,6-tetrahydro-1H,1′H-spiro[isoxazolo[4,5-g][1,4]oxazino[4,3-a]quinoline-5,5′-pyrimidine]-2′,4′,6′(3′H)-trione] | 1300 nM | 
9 | C[C@@H]1CN2c3c(nc4c(C(=O)NCc5cccc(C#N)c5)noc4c3Cl)CC3(C(=O)NC(=O)NC3=O)[C@H]2[C@H](C)O1 (relative stereo) [Example 133, (2R,4S,4aS)-rel-11-chloro-N-(3-cyanobenzyl)-2,4-dimethyl-2′,4′,6′-trioxo-2,2′,3′,4,4a,4′,6,6′-octahydro-1H,1′H-spiro[isoxazolo[4,5-g][1,4]oxazino[4,3-a][1,5]naphthyridine-5,5′-pyrimidine]-8-carboxamide] | 13000 nM | 
10 | C[C@@H]1CN2c3c(cc4c(N(C)C)noc4c3F)CC3(C(=O)NC(=O)NC3=O)[C@H]2[C@H](C)O1 (relative stereo) [Example 24, (2R,4S,4aS)-rel-8-(dimethylamino)-11-fluoro-2,4-dimethyl-1,2,4,4a-tetrahydro-2′H,6H-spiro[isoxazolo[4,5-g][1,4]oxazino[4,3-a]quinoline-5,5′-pyrimidine]-2′,4′,6′(1′H,3′H)-trione] | 300 nM | 
11 | C[C@H]1CN2c3c(cc4c(-c5ccncn5)noc4c3F)CC3(C(=O)NC(=O)NC3=O)[C@@H]2[C@@H](C)O1 [Example 74(a), (2S,4R,4aR)-11-fluoro-2,4-dimethyl-8-(pyrimidin-4-yl)-2,4,4a,6-tetrahydro-1H,1′H-spiro[isoxazolo[4,5-g][1,4]oxazino[4,3-a]quinoline-5,5′-pyrimidine]-2′,4′,6′(3′H)-trione] | 27000 nM | 
12 | C[C@@H]1CN2c3c(cc4c(-n5cncn5)noc4c3F)CC3(C(=O)NC(=O)NC3=O)[C@@H]2[C@@H](C)O1 [Example 53(b), (2R,4R,4aR)-11-fluoro-2,4-dimethyl-8-(1H-1,2,4-triazol-1-yl)-2,4,4a,6-tetrahydro-1H,1′H-spiro[isoxazolo[4,5-g][1,4]oxazino[4,3-a]quinoline-5,5′-pyrimidine]-2′,4′,6′(3′H)-trione] | 20000 nM | 
13 | C[C@@H]1CN2c3c(nc4c(-c5nccs5)noc4c3Cl)CC3(C(=O)NC(=O)NC3=O)[C@H]2[C@H](C)O1 (relative stereo) [Example 111, (2R,4S,4aS)-rel-11-chloro-2,4-dimethyl-8-(thiazol-2-yl)-2,4,4a,6-tetrahydro-1H,1′H-spiro[isoxazolo[4,5-g][1,4]oxazino[4,3-a][1,5]naphthyridine-5,5′-pyrimidine]-2′,4′,6′(3′H)-trione] | 700 nM | 
14 | C[C@@H]1CN2c3c(cc4c(N5CCOCC5)noc4c3F)CC3(C(=O)NC(=O)NC3=O)[C@H]2[C@H](C)O1 (relative stereo) [Example 22, (2R,4S,4aS)-rel-11-fluoro-2,4-dimethyl-8-(morpholin-4-yl)-1,2,4,4a-tetrahydro-2′H,6H-spiro[isoxazolo[4,5-g][1,4]oxazino[4,3-a]quinoline-5,5′-pyrimidine]-2′,4′,6′(1′H,3′H)-trione] | 2600 nM | 
15 | CNC(=O)c1noc2c(Cl)c3c(nc12)CC1(C(=O)NC(=O)NC1=O)[C@H]1[C@H](C)O[C@H](C)CN31 (relative stereo) [Example 125, (2R,4S,4aS)-rel-11-Chloro-N,2,4-trimethyl-2′,4′,6′-trioxo-2,2′,3′,4,4a,4′,6,6′-octahydro-1H,1′H-spiro[isoxazolo[4,5-g][1,4]oxazino[4,3-a][1,5]naphthyridine-5,5′-pyrimidine]-8-carboxamide] | 700 nM | 
16 | C[C@@H]1CN2c3c(cc4c([S+](C)[O-])noc4c3F)CC3(C(=O)NC(=O)NC3=O)[C@H]2[C@H](C)O1 (relative stereo) [Example 181, (2R,4S,4aS)-rel-11-fluoro-2,4-dimethyl-8-(methylsulfinyl)-1,2,4,4a-tetrahydro-2′H,6H-spiro[1,4-oxazino[4,3-a][1,2]oxazolo[4,5-g]quinoline-5,5′-pyrimidine]-2′,4′,6′(1′H,3′H)-trione] | 3300 nM | 
17 | C[C@@H]1CN2c3c(cc4c(C(=O)NCC5CCCCC5)noc4c3F)CC3(C(=O)NC(=O)NC3=O)[C@H]2[C@H](C)O1 (relative stereo) [Example 156, (2R,4S,4aS)-rel-N-(cyclohexylmethyl)-11-fluoro-2,4-dimethyl-2′,4′,6′-trioxo-2,2′,3′,4,4a,4′,6,6′-octahydro-1H,1′H-spiro[isoxazolo[4,5-g][1,4]oxazino[4,3-a]quinoline-5,5′-pyrimidine]-8-carboxamide] | 1500 nM | 
18 | C[C@@H]1CN2c3c(cc4c(-n5cc(C(=O)O)cn5)noc4c3F)CC3(C(=O)NC(=O)NC3=O)[C@H]2[C@H](C)O1 (relative stereo) [Example 186, 1-[(2R,4S,4aS)-rel-11-fluoro-2,4-dimethyl-2′,4′,6′-trioxo-1,1′,2,3′,4,4′,4a,6′-octahydro-2′H,6H-spiro[1,4-oxazino[4,3-a][1,2]oxazolo[4,5-g]quinoline-5,5′-pyrimidin]-8-yl]-1H-pyrazole-4-carboxylic acid] | 7600 nM | 
19 | C[C@@H]1CN2c3c(nc4c(C(=O)N5CC(F)(F)C5)noc4c3Cl)CC3(C(=O)NC(=O)NC3=O)[C@H]2[C@H](C)O1 (relative stereo) [Example 130, (2R,4S,4aS)-rel-11-Chloro-8-(3,3-difluoroazetidine-1-carbonyl)-2,4-dimethyl-2,4,4a,6-tetrahydro-1H,1′H-spiro[isoxazolo[4,5-g][1,4]oxazino[4,3-a][1,5]naphthyridine-5,5′-pyrimidine]-2′,4′,6′(3′H)-trione] | 30000 nM | 
20 | C[C@@H]1CN2c3c(cc4c(NCC5CCOCC5)noc4c3F)CC3(C(=O)NC(=O)NC3=O)[C@H]2[C@H](C)O1 (relative stereo) [Example 19, (2R,4S,4aS)-rel-11-fluoro-2,4-dimethyl-8-[(tetrahydro-2H-pyran-4-ylmethyl)amino]-1,2,4,4a-tetrahydro-2′H,6H-spiro[1,4-oxazino[4,3-a][1,2]oxazolo[4,5-]quinoline-5,5′-pyrimidine]-2′,4′,6′(1′H,3′H)-trione] | 2900 nM | 
21 | C[C@@H]1CN2c3c(cc4c(-c5ccncc5)noc4c3F)CC3(C(=O)NC(=O)NC3=O)[C@H]2[C@H](C)O1 (relative stereo) [Example 82, (2R,4S,4aS)-rel-11-fluoro-2,4-dimethyl-8-(pyridin-4-yl)-2,4,4a,6-tetrahydro-1H,1′H-spiro[isoxazolo[4,5-g][1,4]oxazino[4,3-a]quinoline-5,5′-pyrimidine]-2′,4′,6′(3′H)-trione] | 200 nM | 
